How the values were obtained:
[1] = tested on: allogeneic kidney transplantation; conditions: oral administration; cited from earlier work
[2] = tested on: New Zealand White rabbit iliac arteries; assay: Rabbit iliac stent model (in-stent restenosis); type: in vivo; conditions: oral gavage, vs placebo
Experimental: Inhibition of In-Stent Restenosis and Proximal and Distal Lesion Development at 28 Days in the Rabbit Iliac Stent Model A combined angioplasty and stenting procedure is performed in New Zealand White rabbit iliac arteries. Iliac artery balloon injury is performed by inflating a 3.0×9.0 mm angioplasty balloon in the mid-portion of the artery followed by “pull-back” of the catheter for 1 balloon length. Balloon injury is repeated 2 times, and a 3.0×12 mm stent is deployed at 6 atm for 30 seconds in the iliac artery. Balloon injury and stent placement is then performed on the contralateral iliac artery in the same manner. A post-stent deployment angiogram is performed. All animals receive oral aspirin 40 mg/day daily as anti-platelet therapy and are fed standard low-cholesterol rabbit chow. Twenty-eight days after stenting, animals are anesthetized and euthanized and the arterial tree is perfused at 100 mmHg with lactated Ringer's solution for several minutes, then perfused with 10% formalin at 100 mmHg for 15 minutes. The vascular section between the distal aorta and the proximal femoral arteries is excised and cleaned of periadventitial tissue. Three sections of artery are sampled: the stented section, the artery 5 mm immediately proximal to the stent and the artery 5 mm immediately distal to the stent is embedded in plastic. Sections are taken from the proximal, middle, and distal portions of each stent. Serial sections are also taken of the first 2 mm proximal and distal to the stent. Sections are stained with hematoxylin-eosin and Movat pentachrome stains. […] The neointima and neointimal thickness is measured both at and between the stent struts. The vessel area is measured as the area within the EEL. Cells staining positively as macrophages are counted in the sections taken from the stented area of artery. Data are expressed as mean ±SEM. Statistical analysis of the histologic data is accomplished using ANOVA due to the fact that two stented arteries are measured per animal with a mean generated per animal. […]

[3] = Drug release from polymer coatings in aqueous solution; type: physicochemical; conditions: PBS pH 7.4 or PEG/water 40/60 v/v, 37°, solutions changed daily; stable = less than 10% variation of the drug release rate
Experimental: (§1) A stent (e.g. a Multi-Link Vision stent, Guidant Corp.; or a DRIVER stent, Medtronic Corp.) is weighed and then mounted on a rotating or other support for coating with a polymeric or other synthetic or biological carrier used as a drug reservoir. In an exemplary carrier application procedure, while the stent is rotating, a 100 μl aliquot of a solution of polylactide glycolide, 0.75 mg/ml of pimecrolimus and 0.0015 mg/ml 2,6-di-tert-butyl-4-methylphenol dissolved in a 50:50 mixture of methanol and tetrahydrofuran, is coated onto it. The coated stent is removed from the support and allowed to air-dry. After a final weighing the amount of coating on the stent is determined.
Drug Release from Polymer Coatings in Aqueous Solution
Four 2 cm pieces of stents coated as described in Example 3 above are placed into 100 ml of PBS having a pH of 7.4. Another 4 pieces from each series are placed into 100 ml of PEG/water solution (40/60 v/v, MW of PEG=400). The stent pieces are incubated at 37° in a shaker. The buffer and PEG solutions are changed daily and different assays are performed on the solution to determine the released pimecrolimus concentrations. […] The term “stable pimecrolimus” means that less than 10% variation of the drug release rate is observed.

[4] = tested on: rat carotid artery balloon injury; assay: Rat carotid artery balloon injury model; type: in vivo
[5] = Drug release from polymer coatings in plasma; type: physicochemical; conditions: citrated human plasma, 37°, changed daily; stable = less than 10% variation of the drug release rate
Experimental: as §1
Drug Release from Polymer Coatings in Plasma
Release of pimecrolimus in plasma is also studied. 1 cm pieces of a coated stent are put into 1 ml of citrated human plasma (from Helena Labs) in lyophilized form and reconstituted by adding 1 ml of sterile deionized water. Three sets of stent plasma solutions are incubated at 37° and the plasma is changed daily. Different assays are performed on the solution to determine the released pimecrolimus concentrations.

## C=CC[C@@H]1/C=C(\C)C[C@H](C)C[C@H](OC)[C@H]2O[C@@](O)(C(=O)C(=O)N3CCCC[C@H]3C(=O)O[C@H](/C(C)=C/[C@@H]3CC[C@@H](O)[C@H](OC)C3)[C@H](C)[C@@H](O)CC1=O)[C@H](C)C[C@@H]2OC [tacrolimus]
[1]
  minimum effective dose (MED): 14 mg/kg

## CC[C@@H]1/C=C(\C)C[C@H](C)C[C@H](OC)[C@H]2O[C@@](O)(C(=O)C(=O)N3CCCC[C@H]3C(=O)O[C@H](/C(C)=C/[C@@H]3CC[C@H](Cl)[C@H](OC)C3)[C@H](C)[C@@H](O)CC1=O)[C@H](C)C[C@@H]2OC [pimecrolimus, {[1E-(1R,3R,4S)]1R,9S,12S,13R,14S,17R,18E,21S,23S,24R,25S,27R}-12-[2-(4-chloro-3-methoxycyclohexyl)-1-methylvinyl]-17-ethyl-1,14-dihydroxy-23,25-dimethoxy-13,19,21,27-tetramethyl-11,28,dioxa-4-azatricyclo [22.3.1.0(4,9)]octacos-18-ene-2,3,10,16-tetraone]
[2]; 28 days after stenting
  extent of restenotic lesion formation: marked reduction
[2]; 28 days
  lesion formation in the portions of artery immediately proximal and immediately distal to the stent: inhibited
  number of inflammatory cells, especially in the area surrounding the stent struts: significantly reduced
[3]
  pimecrolimus release from coated stents: stable pimecrolimus release
[4]; local administration to the adventitia
  constrictive remodeling: potent inhibition
[4]; local administration to the adventitia via catheter/Alzet minipump, day 1
  infiltration of CD45+ leukocytes: potent inhibition
[4]; local administration to the adventitia, early 9 days and late 21-28 days post-ballooning
  early and late neointimal lesions: potent inhibition
[4]; oral dosing, 1 day post-balloon injury
  CD45-positive leukocyte infiltration into the vessel wall and adventitia: significantly reduce
[4]; oral dosing, at 9 and 12 days
  neointimal lesion formation following balloon injury: significantly reduce
[5]
  pimecrolimus release from coated stents in plasma: stable pimecrolimus release

From patent US20060035879A1, “Organic Compounds” (priority 2002, published 2006)
